19 compounds from ChEMBL document CHEMBL4049439, “Synthesis and Characterization of Tetrahydropyran-Based Bacterial Topoisomerase Inhibitors with Antibacterial Activity against Gram-Negative Bacteria” (J Med Chem, 2017) can be followed below.

pIC50: −log10 of the molar value. ≈ marks a conversion by molar mass, not a printed value. Calls of active or inactive are those of the source. The calls are words filed in the database; no cut-off is given here.

For series [1], the system named is Pseudomonas aeruginosa. Description: Antibacterial activity against Pseudomonas aeruginosa ATCC 27853 by CLSI broth microdilution method. The class given is functional. (Broth dilution looks for growth in wells or tubes with falling amounts of substance.)
Another series concerns Staphylococcus aureus. Briefly: Antibacterial activity against Staphylococcus aureus ATCC 29213 by CLSI broth microdilution method. The class given is functional.
The nature of series [2]: Inhibition of wild-type Escherichia coli DNA topoisomerase-4 mediated supercoiled pBR322 DNA relaxation by ethidium bromide based agarose gel electrophoresis.
Series [3] in a line: (§1) Inhibition of wild-type Pseudomonas aeruginosa DNA gyrase supercoiling activity using relaxed pBR322 DNA as substrate by ethidium bromide based agarose gel electrophoresis.
Series [4] can be described thus: Inhibition of wild-type Escherichia coli DNA gyrase supercoiling activity using relaxed pBR322 DNA as substrate by ethidium bromide based agarose gel electrophoresis.
Series [5] in a line: (§2) Inhibition of wild-type Acinetobacter baumannii DNA topoisomerase-4 mediated supercoiled pBR322 DNA relaxation by ethidium bromide based agarose gel electrophoresis.
Series [6] is described as follows: (§3) Inhibition of wild-type Pseudomonas aeruginosa DNA topoisomerase-4 mediated supercoiled pBR322 DNA relaxation by ethidium bromide based agarose gel electrophoresis.
The test system of series [7] is Acinetobacter baumannii. Description: Antibacterial activity against fluoroquinolone-resistant Acinetobacter baumannii T6474 by CLSI broth microdilution method. The class given is functional.
For the next series, the system named is Escherichia coli. Description: Antibacterial activity against wild-type Escherichia coli ATCC 25922 by CLSI broth microdilution method. The class given is functional.
Series [8] can be described thus: (§4) Inhibition of wild-type Acinetobacter baumannii DNA gyrase supercoiling activity using relaxed pBR322 DNA as substrate by ethidium bromide based agarose gel electrophoresis.
Series [9] relates to Pseudomonas aeruginosa. Described as §1.
Series [10] relates to Acinetobacter baumannii. Described as §2.
Series [11] has as its system Pseudomonas aeruginosa. The description is as §3.
For series [12], the system named is Acinetobacter baumannii. The series is described as §4.
Series [13] in a line: Lipophilicity, log D of the compound at pH 7.4. It counts as physicochemical. The conditions noted are these: buffer.

By MIC is commonly meant the least concentration at which growth counts as inhibited. Higher therefore signals a need for much substance. As usually defined, the pIC50 is the negative decadic logarithm of the IC50, by convention in mol/L. Read a low pIC50 as a high IC50. On to `COc1ccc2ccc(=O)n(C[C@H](O)[C@@H]3CC[C@@H](NCc4cc5c(cn4)OCCO5)CO3)c2n1`, for which the MIC against Pseudomonas aeruginosa [1] was > 8 µg/mL; against Staphylococcus aureus it was ≤ 0.03 µg/mL; in the series on Acinetobacter baumannii [7], 0.5 µg/mL (≈ 1.07 µM); in the series on Escherichia coli it was 4 µg/mL (≈ 8.54 µM). Besides, the pIC50 is 6.90 in [2]; 6.90 in [3]; 5.10 in series [4]; 6.90 in [5]; 6.90 in [6]; 6.90 in series [8].

Consider `COc1ccc2ccc(=O)n(C[C@H](N)[C@@H]3CC[C@@H](NCc4ccc5c(n4)NC(=O)CO5)CO3)c2c1`, for which the MIC against Pseudomonas aeruginosa [1] turned out to be 4 µg/mL (≈ 8.34 µM); against Staphylococcus aureus, 0.25 µg/mL (≈ 0.521 µM); in the series on Acinetobacter baumannii [7], 2 µg/mL (≈ 4.17 µM); against Escherichia coli, 0.25 µg/mL (≈ 0.521 µM). Also, the pIC50 in series [2] was 7.52; in series [3], 6.90; in series [4], 6.90; in [5] it was 6.90; in [6] it was 6.30; in [8], 6.90.

Consider `COc1ccc2ncc(=O)n(C[C@H](N)[C@@H]3CC[C@@H](NCc4ccc5c(n4)NC(=O)CO5)CO3)c2n1`, for which the MIC against Pseudomonas aeruginosa [1] came to 2 µg/mL (≈ 4.15 µM); with Staphylococcus aureus it was 0.125 µg/mL (≈ 0.26 µM); against Acinetobacter baumannii [7], 2 µg/mL (≈ 4.15 µM); with Escherichia coli, 0.5 µg/mL (≈ 1.04 µM). Further, the pIC50 was 6.90 in series [2]; 6.90 in series [3]; 6.30 in [4]; 6.90 in series [5]; 7.52 in [6]; 6.90 in [8].

For the compound `COc1ccc2ncc(=O)n(C[C@H](N)[C@@H]3CC[C@@H](NCc4ccc5c(n4)NC(=O)CO5)CO3)c2c1`, the MIC against Pseudomonas aeruginosa [1] was found to be 4 µg/mL (≈ 8.32 µM); in the series on Staphylococcus aureus, 0.063 µg/mL (≈ 0.131 µM); against Acinetobacter baumannii [7], 2 µg/mL (≈ 4.16 µM); with Escherichia coli, 0.25 µg/mL (≈ 0.52 µM). Moreover, the pIC50 in series [2] was 7.52; in series [3], 7.52; in series [4], 6.30; in series [5], 6.90; in series [6], 7.52; in series [8], 7.52.

For `COc1cnc2ccc(=O)n(C[C@H](N)[C@@H]3CC[C@@H](NCc4ccc5c(n4)NC(=O)CO5)CO3)c2n1`, the MIC against Pseudomonas aeruginosa [1] was 1 µg/mL (≈ 2.08 µM); in the series with Staphylococcus aureus, 0.5 µg/mL (≈ 1.04 µM); against Acinetobacter baumannii [7] it was 2 µg/mL (≈ 4.15 µM); in the series with Escherichia coli it was 0.5 µg/mL (≈ 1.04 µM). For the same compound, the pIC50 in [2] was 7.52; in series [3] it was 6.90; in series [4] it was 6.30; in series [5] it was 7.52; in [6], 7.52; in series [8], 6.90.

For the compound `COc1ccc2ccc(=O)n(C[C@H](O)[C@@H]3CC[C@@H](NCc4cc5c(cn4)OCCS5)CO3)c2n1`, the MIC was > 8 µg/mL against Pseudomonas aeruginosa [1], ≤ 0.03 µg/mL against Staphylococcus aureus, 0.5 µg/mL (≈ 1.03 µM) in the series with Acinetobacter baumannii [7] and 4 µg/mL (≈ 8.25 µM) with Escherichia coli. In addition, the pIC50 in [2] is 7.52; in series [3] it was 6.30; in series [4] it was 6.30; in series [5], 7.52; in [6] it was ≥ 8.00; in series [8], 6.90.

Consider `COc1ccc2ccc(=O)n(C[C@H](O)[C@@H]3CC[C@@H](NCc4cc5c(nn4)OCCO5)CO3)c2n1`, for which the MIC in the series with Pseudomonas aeruginosa [1] is > 8 µg/mL; with Staphylococcus aureus it was 0.06 µg/mL (≈ 0.128 µM); in the series on Acinetobacter baumannii [7], > 8 µg/mL; against Escherichia coli it was > 8 µg/mL. Further, the pIC50 in series [2] was 5.70; in [3] it was 5.10; in series [4], 4.49; in series [5], 5.10; in series [6], 6.30; in series [8] it was 5.10.

Turning to `COc1ccc2ccc(=O)n(C[C@H](O)[C@@H]3CC[C@@H](NCc4cc5c(nn4)OCCS5)CO3)c2n1`, the MIC with Pseudomonas aeruginosa [1] was > 8 µg/mL; in the series on Staphylococcus aureus, 0.031 µg/mL (≈ 0.0638 µM); against Acinetobacter baumannii [7], 8 µg/mL (≈ 16.5 µM); in the series on Escherichia coli, > 8 µg/mL. Moreover, the pIC50 in series [2] is 6.90; in series [3] it was 6.30; in series [4], 5.10; in [5] it was 6.30; in [6], 6.90; in [8], 5.70.

For the compound `COc1ccc2nccc([C@H](N)C[C@@H]3CC[C@@H](NCc4ccc5c(n4)NC(=O)CO5)CO3)c2n1`, the inhibition result in the series with Pseudomonas aeruginosa [9], in the series with Acinetobacter baumannii [10], with Pseudomonas aeruginosa [11] and in the series with Acinetobacter baumannii [12] was “inactive” in each case.

The term logD denotes lipophilicity at a set pH, counting ionised and neutral species. For `COc1ccc2ncc(F)c(C[C@H](O)C34CCC(NCc5ccc6c(n5)NC(=O)CO6)(CC3)CO4)c2n1`, the logD in series [13] was determined as 2.

`COc1ccc2nccc(C(N)C[C@@H]3CC[C@@H](NCc4ccc5c(n4)NC(=O)CO5)CO3)c2n1` (mixture of isomers): the MIC with Pseudomonas aeruginosa [1] was determined as 8 µg/mL; against Staphylococcus aureus, 2 µg/mL; in the series on Acinetobacter baumannii [7], 8 µg/mL; against Escherichia coli, 1 µg/mL. Moreover, the pIC50 in series [2] was 6.90; in series [3], 6.30; in series [4], 5.10; in [5], 6.90; in series [6], 6.90; in series [8], 5.70.

As for `O=C(O)c1cn(C2CC2)c2cc(N3CCNCC3)c(F)cc2c1=O` [CIPROFLOXACIN], the pIC50 in [3] was 6.30; in series [5] it was 4.49; in [6], 5.10; in [8] it was 5.70.

Regarding `COc1ccc2ccc(F)c(C[C@H](N)[C@@H]3CC[C@@H](NCc4ccc5c(n4)NC(=O)CO5)CO3)c2n1`, the MIC against Pseudomonas aeruginosa [1] is 1 µg/mL (≈ 2.08 µM); against Staphylococcus aureus, 0.03 µg/mL (≈ 0.0623 µM); in the series with Acinetobacter baumannii [7], ≤ 0.03 µg/mL; with Escherichia coli it was ≤ 0.03 µg/mL. For the same compound, the pIC50 in [2] was ≥ 8.00; in [3], 7.52; in [4], 7.52; in series [5] it was 7.52; in series [6], 7.52; in series [8], 7.52.

With `COc1ccc2nccc(CC(N)[C@@H]3CC[C@@H](NCc4ccc5c(n4)NC(=O)CO5)CO3)c2n1` (mixture of isomers), the MIC is 2 µg/mL against Pseudomonas aeruginosa [1], 0.125 µg/mL against Staphylococcus aureus, 0.5 µg/mL in the series with Acinetobacter baumannii [7] and 0.125 µg/mL against Escherichia coli. Also, the pIC50 in [2], in series [3], in [4], in series [5], in series [6] and in [8] was 6.30 in each case.

Regarding `COc1ccc2nccc([C@@H](N)C[C@@H]3CC[C@@H](NCc4ccc5c(n4)NC(=O)CO5)CO3)c2n1`, the inhibition entry in the series on Pseudomonas aeruginosa [9], with Acinetobacter baumannii [10], in the series with Pseudomonas aeruginosa [11] and with Acinetobacter baumannii [12] was “inactive” throughout.

Regarding `COc1ccc2nccc(C[C@H](N)[C@@H]3CC[C@@H](NCc4ccc5c(n4)NC(=O)CO5)CO3)c2n1`, the MIC in the series on Pseudomonas aeruginosa [1] is 0.5 µg/mL (≈ 1.08 µM); with Staphylococcus aureus, 0.06 µg/mL (≈ 0.129 µM); against Acinetobacter baumannii [7] it was 0.25 µg/mL (≈ 0.538 µM); against Escherichia coli, 0.125 µg/mL (≈ 0.269 µM). Further, the pIC50 is 7.52 in series [2]; 6.90 in series [3]; 6.90 in [4]; 7.52 in [5]; 7.52 in series [6]; 6.90 in series [8].

Turning to `COc1cnc2ccc(=O)n(C[C@H](N)[C@@H]3CC[C@@H](NCc4ccc5c(n4)NC(=O)CO5)CO3)c2c1`, the minimal inhibitory concentration (MIC) came out at 4 µg/mL (≈ 8.32 µM) in the series on Pseudomonas aeruginosa [1], 1 µg/mL (≈ 2.08 µM) in the series on Staphylococcus aureus, 4 µg/mL (≈ 8.32 µM) with Acinetobacter baumannii [7] and 1 µg/mL (≈ 2.08 µM) against Escherichia coli. Also, the pIC50 in series [2] was 7.52; in series [3], 7.52; in [4] it was 6.30; in series [5], 6.90; in series [6] it was 7.52; in series [8] it was 7.52.

Turning to `COc1ccc2ncc(F)c(C[C@@H](N)[C@@H]3CC[C@@H](NCc4ccc5c(n4)NC(=O)CO5)CO3)c2n1`, the minimal inhibitory concentration (MIC) against Pseudomonas aeruginosa [1] is > 8 µg/mL; in the series on Staphylococcus aureus, 1 µg/mL (≈ 2.07 µM); in the series with Acinetobacter baumannii [7] it was 1 µg/mL (≈ 2.07 µM); against Escherichia coli, 1 µg/mL (≈ 2.07 µM). The pIC50 in series [2] was 6.90; in series [3] it was 6.90; in series [4], 6.30; in [5], 6.90; in [6], 6.90; in series [8], 6.30.

Take `COc1ccc2ncc(F)c(C[C@H](O)[C@@H]3CC[C@@H](NCc4cc5c(nn4)OCCS5)CO3)c2n1`: the negative-log IC50 (pIC50) in [3] was 6.30; in series [5], 6.90; in series [6], 6.90; in series [8], 5.70. This compound yielded an MIC against Acinetobacter baumannii [7] of 2 µg/mL (≈ 4.1 µM).
